# In patent US20140179681A1, “METHODS AND COMPOSITIONS OF TARGETED DRUG DEVELOPMENT” (priority 2010, published 2014):
# Where a name gives a salt, the structure may show the parent alone. Read-outs that look alike come from different tables or passages of the source.
# Experiments:
# EGFR = target: T1, EGFR (Homo sapiens, UniProt P00533); experiment: EGFR in-cell Western (ICW) screening protocol (EGFR inhibition assay); assay type: cell-based; set-up: ICW 1 / ICW 2 / ICW Avg: unit not given here; conditions: ICW assay; for ICW Avg: average of runs 1 and 2; for ICW 1: run 1; for ICW 2: run 2
# T1 construct: host or cells: A431
# T1 sequence (P00533 25-1210): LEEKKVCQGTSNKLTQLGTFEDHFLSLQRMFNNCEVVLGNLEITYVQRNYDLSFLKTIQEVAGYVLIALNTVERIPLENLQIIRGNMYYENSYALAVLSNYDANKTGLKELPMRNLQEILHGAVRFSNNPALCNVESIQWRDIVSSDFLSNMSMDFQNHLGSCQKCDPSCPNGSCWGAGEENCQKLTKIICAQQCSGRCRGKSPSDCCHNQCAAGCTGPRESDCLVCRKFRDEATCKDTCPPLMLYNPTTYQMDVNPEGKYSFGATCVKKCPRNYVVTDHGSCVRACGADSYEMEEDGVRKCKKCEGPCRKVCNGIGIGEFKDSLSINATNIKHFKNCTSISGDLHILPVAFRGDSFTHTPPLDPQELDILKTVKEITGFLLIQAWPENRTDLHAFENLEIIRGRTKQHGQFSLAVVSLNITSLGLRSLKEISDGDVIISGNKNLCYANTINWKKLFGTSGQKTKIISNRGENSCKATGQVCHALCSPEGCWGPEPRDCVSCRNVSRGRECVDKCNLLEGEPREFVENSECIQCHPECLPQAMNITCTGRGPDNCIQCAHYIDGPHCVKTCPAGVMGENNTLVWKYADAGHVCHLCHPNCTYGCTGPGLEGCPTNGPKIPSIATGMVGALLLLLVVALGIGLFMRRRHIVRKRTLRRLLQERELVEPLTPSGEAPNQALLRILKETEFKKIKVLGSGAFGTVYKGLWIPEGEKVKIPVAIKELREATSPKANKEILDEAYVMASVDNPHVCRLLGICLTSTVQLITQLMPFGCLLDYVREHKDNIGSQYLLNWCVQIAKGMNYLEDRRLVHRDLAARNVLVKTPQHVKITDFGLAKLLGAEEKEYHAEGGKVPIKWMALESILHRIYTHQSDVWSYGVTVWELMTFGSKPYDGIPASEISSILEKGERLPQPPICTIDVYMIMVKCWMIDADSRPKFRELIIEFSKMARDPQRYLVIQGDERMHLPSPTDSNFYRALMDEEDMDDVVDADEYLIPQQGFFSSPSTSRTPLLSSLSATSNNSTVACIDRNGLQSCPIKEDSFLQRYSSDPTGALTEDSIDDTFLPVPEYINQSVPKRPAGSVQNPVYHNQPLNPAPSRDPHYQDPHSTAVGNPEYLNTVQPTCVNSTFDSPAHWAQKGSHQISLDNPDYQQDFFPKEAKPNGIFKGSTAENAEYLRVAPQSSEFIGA
# Summary of the method: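 Serum-starved A431 cells (2 h) were pretreated with compound for 4 h at 37° C, then stimulated with EGF (10 ng/ml final, or 6.6 or 12.5 ng/ml in some runs) for 10 min. After formaldehyde fixation, phospho-EGFR (Tyr1173, or Tyr1045 in some runs) and total EGFR were detected by in-cell Western immunostaining.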
# [1] = system: epithelial carcinoma A431 cell line; experiment: MTT Cell Proliferation Assay, A431 cells; assay type: cell-based; conditions: for IC50: first value of cell, read-out: MTT Assay IC50(A431/MDBK): A431; for MTT Assay IC50(A431/MDBK): ratio in parentheses: ratio MDBK IC50 / A431 IC50 (selectivity)
# Summary of the method: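 Viability was measured by mitochondrial MTT reduction after cells were exposed to compound for 3 days in reduced-serum medium. Inhibition was calculated per plate against 0.5% DMSO controls.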
# MDBK line = experiment: MTT Cell Proliferation Assay, MDBK cells; assay type: cell-based, bovine; conditions: MDBK cells, second value of cell, read-out: MTT Assay IC50(A431/MDBK): MDBK
# From the text: The following example describes the MTT Cell Proliferation Assay.
# The MTT Cell Proliferation Assay is a colorimetric assay system that measures the reduction of the tetrazolium salt MTT (3-(4,5-dimethylthiazol-2-yl)-2,5-diphenyltetrazolium bromide) into insoluble formazan crystals, produced by the mitochondria of viable cells. […] The color can then be quantified by spectrophotometric means. Among the applications for the method are drug sensitivity, cytotoxicity, response to growth factors, and cell activation. The reduction of tetrazolium salts is now recognized as a safe, accurate alternative to radiometric testing.
# Two replicates on each cell plate and 2 duplicate plates gave 4 individual replicates of each concentration, in each cell line. Concentrations were diluted in 100% DMSO from 25 mM stocks.
# Twelve 96 well plates of each cell line were plated. Plating was done by dislodging cells as in passage protocol, counting on a hemocytometer, re-suspending in standard growth media, and plating using a multichannel pippetor.
# 16 μl of 25 mM stock+34 μl DMSO=8 mM starting concentrations, and serial diluted as with test compounds in same plate. […] Two replicates of each concentrations was run on each cell plate. All compound addition and cell treatments were done using aseptic technique under a laminar flow aseptic hood.
# Control: 0.5% DMSO in treatment media was used as the control.
# MTT dye (Thiazolyl Blue Tetrazolium Bromide, Sigma cat #M5655) stock was prepared in bulk and stored at 4° C. for use: 5 mgs/ml sterile PDS, shielded from light. 4 ul of this stock per 100 uls treatment media per well was used.
# Plates were incubated overnight prior to treatment, with treatment day=Day 0. Compound treatments were prepared prior to washing cells to minimize time cells were dry at room temperature after final aspiration. Compounds were diluted in 100% DMSO in 96 well polypropylene plates: 40 μl 25 mM stock+10 μl DMSO=20 mM; 20 μl of 20 mM+30 μl DMSO=8 mM; 20 μl of 8 mM+30 μl DMSO=3.2 mM; 20 μl of 3.2 mM+30 μl DMSO=1.3 mM; 20 μl of 1.3 mM+30 μl DMSO=0.51 mM.
# 5.0 μl/ml were added to treatment media, in sterile, 2.2 ml deep well plates=0.5% dmso final. Ten μl of each dmso concentration was added to 2.0 ml of treatment media and then mixed using a 1200 μl multichannel pipettor. Cell plates were treated from the deep well plates. Treatment media was standard growth media containing 0.5% FBS and standard additions. This reduced FBS concentration allowed for a slower growth rate in cells.
# Media was aspirated from cell plates, and washed with 200 μl/well sterile PBS. Aspirated PBS wash, and cell plates were treated with 200 μl of compound/treatment media per well, and incubated at 37° C., 5% CO2 for 3 days.
# Prior to harvesting, visual observations were made under an inverted microscope. Plates were harvested by: aspirating the growth media; adding back MTT dye/100 μl treatment media; and incubating plates at 37° C. for 1 hour. MTT dye was aspirated. 100 μl/well dmso was added, and then shaken on a Bellco plate shaker for 5 minutes, at 4.5 setting.
# Plates were read in a Tecan Sunrize UV plate reader, at 560 nm. Settings: Read mode, Outside Normal 2 sec; Shake settle time 3 sec. Data is reported as % inhibition, calculated for individual plates using control values from that plate.
# [2] = Homo sapiens, A-431, A431 cells
SMILES,ICW Avg (EGFR),ICW 1 (EGFR),ICW 2 (EGFR),"IC50 [1, 2]",MTT Assay IC50(A431/MDBK): ratio in parentheses [1],"IC50 (MDBK line; Bos taurus, MDBK)",IC50 ([1]; A431 cells),IC50 (MDBK line)
CCc1c(C)[nH]c(Nc2nc(C)c3cc(C)c(C)cc3n2)nc1=O [11809 + TFA],32.72,31.42,34.02,39.3 µM,0.28,10.9 µM,,
Cc1ccc2nc(Nc3nc(C)cc(C(F)(F)F)n3)nc(C)c2c1 [11816 + TFA],26.67,39.76,13.58,14.2 µM,1.99,28.1 µM,,
Cc1ccc2nc(Nc3nc(=O)cc(CSc4ccc(Cl)cc4)[nH]3)nc(C)c2c1 [11826 + TFA],37.16,40.52,33.80,49.4 µM,0.88,43.3 µM,,
CCCCCC1C(=O)N=C(Nc2nc(C)c3ccc(CC)cc3n2)N=C1C (stereo not shown) [12214 + TFA],34.91,42.29,27.52,32.4 µM,1.40,45.5 µM,,
CCCCCc1c(C)nc(Nc2nc(C)c3cc(CC)ccc3n2)[nH]c1=O [12226 + TFA],38.74,42.24,35.23,42.5 µM,1.15,49 µM,,
Cc1nc(Nc2nc3c(c(-c4ccccc4)n2)CCCC3)nc2c(C)cccc12 [12229 + TFA],25.97,16.57,35.37,19.2 µM,1.08,20.9 µM,,
CCCCc1c(C)nc(Nc2nc(C)c3ccccc3n2)[nH]c1=O [12603 + TFA],38.61,48.06,29.15,,0.62,10.1 µM,16.2 µM,
Cc1ccc(-c2cc(=O)[nH]c(Nc3nc(C)c4ccc(C)cc4n3)n2)cc1 [12604 + TFA],50.98,55.87,46.08,19.3 µM,1.55,30 µM,,
C=CCc1c(C)nc(Nc2nc(C)c3cccc(C)c3n2)[nH]c1=O [12607 + TFA],32.62,38.40,26.85,16.6 µM,0.71,11.8 µM,,
CCOc1ccc2nc(Nc3nc(=O)cc(-c4ccccc4)[nH]3)nc(C)c2c1 [12608 + TFA],42.36,46.64,38.07,43.1 µM,,17 µM,,
C=CCc1c(C)nc(Nc2nc(C)c3ccccc3n2)[nH]c1=O [12610 + TFA],31.33,41.25,21.42,50.4 µM,0.39,19.6 µM,,
Cc1nc(Nc2nc(C)c3cccc(C)c3n2)[nH]c(=O)c1Cc1ccccc1 [12611 + TFA],45.72,52.69,38.76,5.32 µM,1.00,5.31 µM,,
CCCc1c(C)nc(Nc2nc(C)c3cc(C)cc(C)c3n2)[nH]c1=O [12612 + TFA],57.36,69.21,45.51,,,,48.5 µM,79.2 µM
CCCc1c(C)nc(Nc2nc(C)c3cc(C)c(C)cc3n2)[nH]c1=O [12614 + TFA],27.21,20.34,34.09,19.4 µM,0.39,7.56 µM,,
Cc1nc(Nc2nc(CSc3ccccn3)cc(=O)[nH]2)nc2ccccc12 [12623 + TFA],28.49,21.11,35.88,37.2 µM,0.46,17 µM,,
CCCc1c(C)nc(Nc2nc(C)c3cccc(C)c3n2)[nH]c1=O [12625 + TFA],34.27,30.45,38.10,21.2 µM,0.80,17 µM,,
Cc1ccc2nc(Nc3nc(=O)c(C)c(C)[nH]3)nc(C)c2c1 [12629 + TFA],25.89,19.83,31.95,12.7 µM,0.85,10.7 µM,,
Cc1cc2nc(Nc3nc(=O)c(C)c(C)[nH]3)nc(C)c2cc1C [12630 + TFA],26.02,17.06,34.97,11.7 µM,0.75,8.75 µM,,
COCc1cc(=O)nc(Nc2nc(C)c3cc(C)cc(C)c3n2)[nH]1 [12644 + TFA],25.06,16.45,33.67,,0.66,,46.9 µM,30.9 µM
Cc1cc(C)c2nc(Nc3nc(=O)c(C)c(C)[nH]3)nc(C)c2c1 [12645 + TFA],64.97,60.00,69.95,6.49 µM,0.97,6.29 µM,,
